Assay results from publication PMC5575254, “An allosteric ligand-binding site in the extracellular cap of K2P channels” (Nature Communications, 2017).

Legend:
TREK-1 channel = target: T1, TREK-1 channel (Homo sapiens, UniProt O95069); test: Whole-cell voltage clamp of CHO cells transiently transfected with TREK-1; format: cell-based
T1 construct: expressed in transfected cells; host or cells: CHO cells, transient transfection
T1 sequence (O95069 1-411 isoform O95069-2): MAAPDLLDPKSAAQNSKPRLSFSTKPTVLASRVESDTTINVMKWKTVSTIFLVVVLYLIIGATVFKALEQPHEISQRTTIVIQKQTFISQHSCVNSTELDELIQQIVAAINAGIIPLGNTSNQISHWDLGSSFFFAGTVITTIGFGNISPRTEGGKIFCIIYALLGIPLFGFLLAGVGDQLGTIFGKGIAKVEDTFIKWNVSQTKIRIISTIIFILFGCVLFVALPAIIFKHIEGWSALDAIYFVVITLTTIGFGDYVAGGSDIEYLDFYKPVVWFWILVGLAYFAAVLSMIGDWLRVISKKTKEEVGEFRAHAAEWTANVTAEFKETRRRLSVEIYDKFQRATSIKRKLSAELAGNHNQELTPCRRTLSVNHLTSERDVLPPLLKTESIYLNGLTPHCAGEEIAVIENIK
Text: cDNA of the human TREK-1, TREK-2 and TRAAK channels were subcloned into the pEGFPN1 expression vector (Invitrogen), respectively. Mutations were introduced into TREK-1 or TRAAK by PCR using the QuickChange XL sitedirected mutagenesis kit (Agilent Technologies) and were subsequently confirmed by DNA sequencing.
Chinese hamster ovary (CHO) cells were provided by the Cell Bank of Chinese Academy of Sciences (Shanghai, China). CHO cells were maintained in DMEM/F12 (Gibco) supplemented with 10% fetal bovine serum (Gibco) and 100 μg ml^−1 penicillin-streptomycin (Cellgro) in a humidified incubator at 37 °C (5% CO2). For electrophysiology experiments, cells plated in 35 mm tissue culture dishes (Corning Incorporated) were transiently transfected with the plasmids using PolyJet™ reagent (SignaGen) according to the manufacturer’s instructions. Primers used in this study are listed in Supplementary Table 4.
All electrophysiological recordings were obtained using patch-clamp recordings in two different configurations: (1) whole cell for macroscopic current dose–response curves; and (2) outside-out and inside-out for macroscopic currents recordings.
All patch-clamp recordings were conducted 36–96 h after transfection with an Axopatch-200B amplifier (Molecular Devices) at room temperature (23–25 °C). The microelectrodes fashioned from 1.5 mm thin-walled borosilicate glass with filament were pulled from Flaming/Brown type micropipette puller (P-97; SUTTER INSTRUMENT) with the resistances of 3–7 MΩ (whole cell) or 7–15 MΩ (outside-out) when filled with a solution containing (in mM): 140 KCl, 2 MgCl2, 10 EGTA, 1 CaCl2, 10 HEPES (pH 7.3, adjusted with KOH). External solution contained (in mM): 150 NaCl, 5 KCl, 0.5 CaCl2, 1.2 MgCl2, 10 HEPES (pH 7.3, adjusted with NaOH). The current signals were filtered at 1 kHz and digitized at a 10 kHz sampling frequency by using DigiData 1440 A.
Data of whole-cell voltage clamp experiments were fitted using doseResp function. The half inhibition concentrations were derived from fits of the dose–response curves to the function:1 I/I0=A1+A2-A1/1+10^logx0-xP, where I 0 and I are current amplitudes before and after application of inhibitors; A 1 and A 2 are constants between 0 and 1; x is the concentration of inhibitor; x o is the concentration when 50% inhibition was reached (IC50), P is the Hill constant.

[1] = system: cell surface TREK-1 expression; test: Flow cytometry analysis of TREK-1 cell membrane expression; format: cell-based, CHO-K1 cells; settings: 10 μM, 20, 40 min and 1 h incubation
Protocol: CHO-K1 cells were transfected with pFLAG-TREK1 for 24 h. After washed with phosphate-buffered saline (PBS), the cells were disassociated with a non-enzyme cell dissociation solution (Sigma). After 10 μM TKDC incubation for 20, 40 min and 1 h at room temperature, cell surface TREK-1 expression in CHO-K1 cells was analyzed by flow cytometry. Transfected cells expressing FLAG-tagged TREK-1 were incubated with monoclonal ANTI-FLAG® M2-FITC antibody (Sigma). Data were collected with a flow cytometer (FACS Calibur, BD Bioscience) and analyzed with Flow Jo.

mice [2] = test: Acute administration behavioral tests; format: in vivo, Male C57BL/6 mice; settings: single i.p. injection, tests 30 min after administration
Protocol: Male C57BL/6 mice, aged 8 weeks (weighing 18–20 g) were used for acute and chronic drug administration and behavioral tests. The mice were housed four per cage under a 12-h light–dark cycle. Mice were raised under stable conditions with food and water ad libitum. All animal studies and experimental procedures were approved by the Animal Care Committees of the Shanghai Institute of Materia Medica, Chinese Academy of Sciences, and experiments were carried out in accordance with EU Directive 2010/63/EU on the protection of animals used for scientific purposes. […] The mice were removed to a sound-attenuating testing room 3–4 h before testing. […]
The apparatus was made of opaque Plexiglas (50 cm × 50 cm) and placed in a room with sound proof. […] The mice were randomly placed into the center of the sheet following 30 min drugs administration and their behaviors in the open field arena were recorded for 10 min using the camera. […] Locomotor activity and exploratory behavior were measured in the open field test and each animal was placed individually at the center for a 10 min session. The total distance moved and the number of rearing was measured in this experiment. […]
The mice were performed under normal light. […] The duration of immobility defined as floating or remaining motionless was assessed. […]

mice [3] = test: Forced swimming test; format: in vivo, Male C57BL/6 mice; settings: chronic i.p. administration 10 days; TKDC 0.5, 1, 5 mg kg-1; fluoxetine 10 mg kg-1; vs vehicle
Protocol: (§1) Male C57BL/6 mice, aged 8 weeks (weighing 18–20 g) were used for acute and chronic drug administration and behavioral tests. The mice were housed four per cage under a 12-h light–dark cycle. Mice were raised under stable conditions with food and water ad libitum. All animal studies and experimental procedures were approved by the Animal Care Committees of the Shanghai Institute of Materia Medica, Chinese Academy of Sciences, and experiments were carried out in accordance with EU Directive 2010/63/EU on the protection of animals used for scientific purposes. […] The mice were removed to a sound-attenuating testing room 3–4 h before testing. The behavioral tests were carried out 30 min and 24 h after acute and chronic drugs administration, respectively.
The mice were performed under normal light. The apparatus was a transparent Plexiglas cylinder with 30 cm height × 10 cm diameter and the water temperature at 23–25 °C were set to prevent mice from touching the bottom with their limbs. Mice were allowed to swim for 8 min, and their activity was videotaped. There was an extra 15-min swimming in the previous day. The duration of immobility defined as floating or remaining motionless was assessed. To avoid extremely active at the beginning of swimming, the first 2 min of swimming was also excluded as the tail suspension test. […]

mice [4] = test: Open field test; format: in vivo, Male C57BL/6 mice; settings: chronic i.p. administration 10 days
Protocol: as §1
The apparatus was made of opaque Plexiglas (50 cm × 50 cm) and placed in a room with sound proof. A camera was positioned above the apparatus to monitor the animal behaviors. The mice were randomly placed into the center of the sheet following 30 min drugs administration and their behaviors in the open field arena were recorded for 10 min using the camera. […] Locomotor activity and exploratory behavior were measured in the open field test and each animal was placed individually at the center for a 10 min session. The total distance moved and the number of rearing was measured in this experiment. […]

For `CS(=O)(=O)N(CC(=O)N1CCc2ccccc2C1)c1ccc(Cl)cc1` [TKDC, N-(4-cholorphenyl)-N-(2-(3,4-dihydrosioquinolin-2(1H)-yl)-2-oxoethyl)methanesulfonamide], the “effect on TREK-1 current” value (TREK-1 channel; perfusion with 10 μM) was “pronounced decreases in current”, the IC50 (TREK-1 channel; whole-cell, CHO cells, WT TREK-1, mean ± s.e.m, read-out: half-maximal inhibition concentration (IC50), TREK-1) was 4.9 ± 0.6 µM and the “cell surface signal of TREK-1 positive cells” value [1] was “did not obviously lose the cell surface signal”. For the same compound, the “antidepressant-like effect in the acute treatment” value (mice [2]) was “fast antidepressant-like effect”, the “immobility in the forced swimming test” value (mice [3]) was “decrease in immobility” and the “movement into the central area in the open field test” value (mice [4]) was “more likely to move into the central area”. For the same compound, the “total distance traveled in the open field test” value (mice [4]; among groups) was “no obvious difference”.
